For one compound, IC12 results are on record in ChEMBL document CHEMBL1144095, “A new labdane diterpenoid from Renealmia alpinia collected in the Suriname rainforest” (1999).

SMILES strings stand for the structures.

The assay has as its system Saccharomyces cerevisiae. In words: Antifungal activity against Saccharomyces cerevisiae. Format: functional.

With `C=C1CC[C@H]2C(C)(C)CCC[C@]2(C)[C@H]1CC1OC(O)C=C1C(=O)O` (stereo partly specified), the IC12 amounted to 150 µg/mL.
